Read-outs that look alike come from different tables or passages of the source.
What was measured:
[1] = Intramuscular delivery of human EPO mRNA in buffer, serum human EPO; type: in vivo, Sprague-Dawley rats; settings: rats, 100 μg, 13 hours
Procedure: (§1) Mice were intramuscularly or subcutaneously injected with 50 μl of the modified human EPO mRNA (h-EPO), modified luciferase mRNA (Luc) or the formulation buffer (F.Buffer) as described in the dosing chart Table 58. 13 hours post injection blood was collected and serum was analyzed to determine the amount human EPO for each mouse or rat.

[2] = Intramuscular and subcutaneous delivery of human EPO mRNA in buffer, serum human EPO; type: in vivo, C57/BL6 mice; settings: mice, 100 μg, 13 hours
Procedure: as §1

[3] = Duration of activity after intramuscular delivery, serum human EPO; type: in vivo, Sprague-Dawley rats; settings: rats, 100 μg, 24, 48 and 72 hour
Procedure: The rats were bled 2, 6, 12, 24, 48 and 72 hours after the intramuscular injection to determine the concentration of human EPO in serum at a given time.

[4] = In vivo study of Factor IX mmRNA IM, serum Factor IX; settings: mice IM, 2×100 ug/mouse in formulation buffer, 13 hours
Procedure: Human Factor IX mmRNA (Gen1; fully modified 5-methylcytosine and pseudouridine) formulated in formulation buffer was delivered to mice via intramuscular injection.
The mice were bled at 13 hours after the intramuscular injection to determine the concentration of human the polypeptide in serum in pg/mL.

[5] = for Serum Concentration 8-12 hours after administration: Factor IX; for Factor IX Protein Expression, Conc: mice IV, serum 8 hrs
[6] = test system: Factor IX; assay: Factor IX mRNA transfected in serum-free media, peptide detection by MALDI; type: cell-based, human; settings: 8 peptides detected, 7 unique to Factor IX
Text: The cell culture supernatant was collected and subjected to trypsin digestion before undergoing 2-dimensional HPLC separation of the peptides Matrix-assisted laser desorption/ionization was used to detect the peptides. 8 peptides were detected and 7 of the detected peptides are unique to Factor IX.

[7] = Human G-CSF modified RNA lipoplex comparison I.M., S.C., G-CSF ELISA 13 hours; type: in vivo, C57/BL6 mice; settings: mice I.M. or S.C., 100 μg, saline or lipoplex
Procedure: A formulation containing 100 μg of either modified human G-CSF mRNA lipoplexed with 30% by volume of RNAIMAX™ with a 5-methylcytosine (5mc) and a pseudouridine (ψ) modification (G-CSF-Gen1-Lipoplex), modified human G-CSF mRNA with a 5mc and ψ modification in saline (G-CSF-Gen1-Saline), modified human G-CSF mRNA with a N1-5-methylcytosine (N1-5mc) and a ψ modification lipoplexed with 30% by volume of RNAIMAX™ (G-CSF-Gen2-Lipoplex), modified human G-CSF mRNA with a N1-5mc and ψ modification in saline (G-CSF-Gen2-Saline), modified luciferase with a 5mc and ψ modification lipoplexed with 30% by volume of RNAIMAX™ (Luc-Lipoplex), or modified luciferase mRNA with a 5mc and ψ modification in saline (Luc-Saline) was delivered intramuscularly (I.M.) or subcutaneously (S.C.) and a control group for each method of administration was giving a dose of 80 uL of the formulation buffer (F. Buffer) to C57/BL6 mice. 13 hours post injection serum and tissue from the site of injection were collected from each mouse and analyzed by G-CSF ELISA to compare human G-CSF protein levels. The results of the human G-CSF protein in mouse serum from the intramuscular administration and the subcutaneous administration results are shown in Table 55.

[8] = test system: IFN-alpha; assay: Cytokine study PBMC, IFN-alpha production ELISA; type: cell-based; settings: human PBMC, Lipofectamine 2000
Procedure: The plates were then incubated at 37 C.
Each condition was done in duplicate
Shown in Tables 69 and 70 are the average from 2 separate PBMC donors of the G-CSF and IFN-alpha production over time as measured by specific ELISA.

[9] = test system: peripheral blood mononuclear cells (PBMC); assay: In vitro PBMC study, percent modification: IFN-alpha and TNF-alpha by ELISA, PC ratio; type: cell-based, human
Procedure: The supernatant was harvested and run by ELISA 22 hours after transfection to determine the protein expression.

[10] = test system: peripheral blood mononuclear cells (PBMC); assay: Modified RNA transfected in PBMC: G-CSF by ELISA at 6 and 18 hours; type: cell-based, human; settings: Donor 2, 18 hours
Procedure: (§2) 500 ng of G-CSF mRNA modified with 5-methylcytosine (5mC) and pseudouridine (pseudoU) or unmodified G-CSF mRNA was transfected with 0.4 uL of Lipofectamine 2000 into peripheral blood mononuclear cells (PBMC) from three normal blood donors (D1, D2, and D3). […] The supernatant was harvested 6 hours and 18 hours after transfection and run by ELISA to determine the protein expression. The expression of G-CSF, IFN-alpha, and TNF-alpha for Donor 1 is shown in Table 86, Donor 2 is shown in Table 87 and Donor 3 is shown in Table 88.

[11] = test system: peripheral blood mononuclear cells (PBMC); type: cell-based, human
Procedure: as §2

[12] = test system: neutrophil count; assay: Intravenous administration of lipoplexed G-CSF mRNA, neutrophil count; type: in vivo; settings: mice IV, 50 ug RNA in 10% lipoplex at days 0, 2 and 4; day 5
Procedure: Neutrophils were measured at days 1, 5 and 8. Controls included non-specific mammalian RNA or the formulation buffer alone (F.Buffer). The mice were bled at days 1, 5 and 8 to determine the effect of mRNA-encoded human G-CSF to increase neutrophil count. The dosing regimen is shown in Table 64 as are the resulting neutrophil counts (thousands/uL; K/uL).

## Luc
[1]
  human EPO in serum, Avg.: 24.5 pg/mL
  human EPO in serum, Geometric-mean: 22.4 pg/mL
[2]; IM
  human EPO Average Level in serum: 0 pg/mL
[2]; SC
  human EPO Average Level in serum: 26.7 pg/mL
[3]
  human EPO in serum, Avg.: 37.2 pg/mL
  human EPO in serum, Geometric-mean: 29.2 pg/mL

## Factor IX: human Factor IX mRNA, SEQ ID NO: 10, polyA about 160 nt, Cap1, fully modified with 5-methylcytosine and pseudouridine
[4]
  concentration of Factor IX in serum: 1600 pg/mL
[5]; IM, 2 × 100 ug
  Serum Concentration 8-12 hours after administration: ~1.6 ng/mL
[5]; IV (LNP), 1 ug
  Serum Concentration 8-12 hours after administration: ~40 ng/mL
[5]; IV (LNP), 10 ug
  Serum Concentration 8-12 hours after administration: ~400 ng/mL
[5]; IV (LNP), 100 ug
  Serum Concentration 8-12 hours after administration: ~3,000-10,000 ng/ml
[5]; LNP NPA-029-1, 10 ug
  Factor IX Protein Expression, Conc: ~380 ng/mL
[5]; LNP NPA-029-1, 100 ug
  Factor IX Protein Expression, Conc: 3000 to 11000 ng/mL

## Factor IX Gen 1: Factor IX mRNA SEQ ID NO 10, Cap1, fully modified with 5-methylcytosine and pseudouridine
[6]
  expression of Factor IX protein: able to express full-length Factor IX protein

B1: Gen2 G-CSF mmRNA: human G-CSF mRNA, SEQ ID NO: 6, modified with 5-methylcytidine and N1-methylpseudouridine (nucleic acid, listed as Homo sapiens)
chain: GGGAAAUAAGAGAGAAAAGAAGAGUAAGAAGAAAUAUAAGAGCCACCAUGGCCGGUCCCGCGACCCAAAGCCCCAUGAAACUUAUGGCCCUGCAGUUGCUGCUUUGGCACUCGGCCCUCUGGACAGUCCAAGAAGCGACUCCUCUCGGACCUGCCUCAUCGUUGCCGCAGUCAUUCCUUUUGAAGUGUCUGGAGCAGGUGCGAAAGAUUCAGGGCGAUGGAGCCGCACUCCAAGAGAAGCUCUGCGCGACAUACAAACUUUGCCAUCCCGAGGAGCUCGUACUGCUCGGGCACAGCUUGGGGAUUCCCUGGGCUCCUCUCUCGUCCUGUCCGUCGCAGGCUUUGCAGUUGGCAGGGUGCCUUUCCCAGCUCCACUCCGGUUUGUUCUUGUAUCAGGGACUGCUGCAAGCCCUUGAGGGAAUCUCGCCAGAAUUGGGCCCGACGCUGGACACGUUGCAGCUCGACGUGGCGGAUUUCGCAACAACCAUCUGGCAGCAGAUGGAGGAACUGGGGAUGGCACCCGCGCUGCAGCCCACGCAGGGGGCAAUGCCGGCCUUUGCGUCCGCGUUUCAGCGCAGGGCGGGUGGAGUCCUCGUAGCGAGCCACCUUCAAUCAUUUUUGGAAGUCUCGUACCGGGUGCUGAGACAUCUUGCGCAGCCGUGAAGCGCUGCCUUCUGCGGGGCUUGCCUUCUGGCCAUGCCCUUCUUCUCUCCCUUGCACCUGUACCUCUUGGUCUUUGAAUAAAGCCUGAGUAGGAAG
modifications: 5-methylcytidine and N1-methylpseudouridine modified
[7]
  human G-CSF protein production relative to 5-methylcytosine/pseudouridine modified human G-CSF mRNA: increased human G-CSF protein production
[8]
  innate immune recognition, cytokines (IFN-alpha): did not significantly increase cytokines

B2: 100% modification: G-CSF mRNA (SEQ ID NO 6, Cap1) completely modified with 5mC and pseudoU (nucleic acid, listed as Homo sapiens)
chain: GGGAAAUAAGAGAGAAAAGAAGAGUAAGAAGAAAUAUAAGAGCCACCAUGGCCGGUCCCGCGACCCAAAGCCCCAUGAAACUUAUGGCCCUGCAGUUGCUGCUUUGGCACUCGGCCCUCUGGACAGUCCAAGAAGCGACUCCUCUCGGACCUGCCUCAUCGUUGCCGCAGUCAUUCCUUUUGAAGUGUCUGGAGCAGGUGCGAAAGAUUCAGGGCGAUGGAGCCGCACUCCAAGAGAAGCUCUGCGCGACAUACAAACUUUGCCAUCCCGAGGAGCUCGUACUGCUCGGGCACAGCUUGGGGAUUCCCUGGGCUCCUCUCUCGUCCUGUCCGUCGCAGGCUUUGCAGUUGGCAGGGUGCCUUUCCCAGCUCCACUCCGGUUUGUUCUUGUAUCAGGGACUGCUGCAAGCCCUUGAGGGAAUCUCGCCAGAAUUGGGCCCGACGCUGGACACGUUGCAGCUCGACGUGGCGGAUUUCGCAACAACCAUCUGGCAGCAGAUGGAGGAACUGGGGAUGGCACCCGCGCUGCAGCCCACGCAGGGGGCAAUGCCGGCCUUUGCGUCCGCGUUUCAGCGCAGGGCGGGUGGAGUCCUCGUAGCGAGCCACCUUCAAUCAUUUUUGGAAGUCUCGUACCGGGUGCUGAGACAUCUUGCGCAGCCGUGAAGCGCUGCCUUCUGCGGGGCUUGCCUUCUGGCCAUGCCCUUCUUCUCUCCCUUGCACCUGUACCUCUUGGUCUUUGAAUAAAGCCUGAGUAGGAAG
modifications: Cap1; 5-methylcytidine, pseudouridine
[9]
  TNF-alpha Expression: 11.1 pg/mL
  better ratio of protein/cytokine production than natural G-CSF mRNA, IFN-alpha: 100 fold
  better ratio of protein/cytokine production than natural G-CSF mRNA, TNF-alpha: 27 fold
[10]
  G-CSF: 432 pg/mL
[11]
  IFN-alpha: 1 pg/mL

B3: Unmodified G-CSF mRNA: human G-CSF mRNA, SEQ ID NO: 6, having no modifications (natural NTPs) (nucleic acid, listed as Homo sapiens)
chain: GGGAAAUAAGAGAGAAAAGAAGAGUAAGAAGAAAUAUAAGAGCCACCAUGGCCGGUCCCGCGACCCAAAGCCCCAUGAAACUUAUGGCCCUGCAGUUGCUGCUUUGGCACUCGGCCCUCUGGACAGUCCAAGAAGCGACUCCUCUCGGACCUGCCUCAUCGUUGCCGCAGUCAUUCCUUUUGAAGUGUCUGGAGCAGGUGCGAAAGAUUCAGGGCGAUGGAGCCGCACUCCAAGAGAAGCUCUGCGCGACAUACAAACUUUGCCAUCCCGAGGAGCUCGUACUGCUCGGGCACAGCUUGGGGAUUCCCUGGGCUCCUCUCUCGUCCUGUCCGUCGCAGGCUUUGCAGUUGGCAGGGUGCCUUUCCCAGCUCCACUCCGGUUUGUUCUUGUAUCAGGGACUGCUGCAAGCCCUUGAGGGAAUCUCGCCAGAAUUGGGCCCGACGCUGGACACGUUGCAGCUCGACGUGGCGGAUUUCGCAACAACCAUCUGGCAGCAGAUGGAGGAACUGGGGAUGGCACCCGCGCUGCAGCCCACGCAGGGGGCAAUGCCGGCCUUUGCGUCCGCGUUUCAGCGCAGGGCGGGUGGAGUCCUCGUAGCGAGCCACCUUCAAUCAUUUUUGGAAGUCUCGUACCGGGUGCUGAGACAUCUUGCGCAGCCGUGAAGCGCUGCCUUCUGCGGGGCUUGCCUUCUGGCCAUGCCCUUCUUCUCUCCCUUGCACCUGUACCUCUUGGUCUUUGAAUAAAGCCUGAGUAGGAAG
[12]
  increase in neutrophil count above control: no pharmacologic effect on neutrophil counts

From patent publication US20200164038A1, “MODIFIED NUCLEOSIDE, NUCLEOTIDE, AND NUCLEIC ACID COMPOSITIONS” (ModernaTX, Inc., priority 2011, published 2020)
